In patent US20250163002A1, “FUSED QUINONOXIME IMIDAZOLE, ONIUM DERIVATIVES THEREOF, PREPARATION AND USE THEREOF” (SHANGHAI JIAO TONG UNIVERSITY, priority 2022, published 2025):

Legend:
A549 = assay: In vitro inhibition test for cancer cell proliferation (MTT), A549; type: cell-based; conditions: unit inferred
L929 = assay: In vitro cell proliferation inhibition test (MTT), L929; type: cell-based; conditions: unit inferred
HeLa = assay: In vitro inhibition test for cancer cell proliferation (MTT), HeLa; type: cell-based; conditions: 24 h or 48 h after addition, unit inferred
MCF-7 = assay: In vitro inhibition test for cancer cell proliferation (MTT), MCF-7; type: cell-based; conditions: unit inferred
leukemia cell CCRF-CEM = assay: In vitro proliferation inhibition, CCRF-CEM; type: cell-based; conditions: unit inferred
Protocol: (§1) Test method: pancreatic cancer cells CFPAC-1 were cultured in a Dalbeco-improved Eagle medium with the addition of 10% FBS and 5% double-antibody. CFPAC-1 cancer cells were inoculated into a 96-well plate for incubation for 24 h; in the following day, test compounds having various concentrations of (100, 20, 10, 1, 0.1, 0.01, and 0.001 μM) and positive control agents were added per well; corresponding volume of fresh medium was added to blank control. After addition for 24 h or 48 h, cell proliferation was evaluated by chromogenic reaction of MTT formazan.
(§2) In addition, compounds (I), (II), (III), and (IV) of the present invention have good inhibition activity against the proliferation of other cancer cells, including non-small cell lung cancer cell (H460, H1299), liver tumor cell (HepG2), rectal cancer cell (HT29), leukemia cell (CCRF-CEM), prostate cancer cell (PC-3), ovarian carcinoma cell (SKOV-3), melanoma cell (A375), myeloma cell (RPMI-8226), esophageal carcinoma cell (TE-1), pancreatic cancer cell (CFPAC-1, PANC-1, SW1990, ASPC-1, and BXPC-3), bladder cancer cell (5637), and gastric cancer cell (KATO-III).

liver tumor cell HepG2 = assay: In vitro proliferation inhibition, HepG2; type: cell-based; conditions: unit inferred
Protocol: as §1, §2

[1] = test system: ovarian carcinoma cell SKOV-3; assay: In vitro proliferation inhibition, SKOV-3; type: cell-based; conditions: unit inferred
Protocol: as §1, §2

rectal cancer cell HT29 = assay: In vitro proliferation inhibition, HT29; type: cell-based; conditions: unit inferred
Protocol: as §1, §2

melanoma cell A375 = assay: In vitro proliferation inhibition, A375; type: cell-based; conditions: unit inferred
Protocol: as §1, §2

[2] = test system: gastric cancer cell KATO-III; assay: In vitro proliferation inhibition, KATO-III; type: cell-based; conditions: unit inferred
Protocol: as §1, §2

[3] = test system: pancreatic cancer cells CFPAC-1; assay: In vitro proliferation inhibition, CFPAC-1; type: cell-based; conditions: unit inferred
Protocol: as §1, §2

[4] = test system: esophageal carcinoma cell TE-1; assay: In vitro proliferation inhibition, TE-1; type: cell-based; conditions: unit inferred
Protocol: as §1, §2

[5] = test system: pancreatic cancer cell BXPC-3; assay: In vitro proliferation inhibition, BXPC-3; type: cell-based; conditions: unit inferred
Protocol: as §1, §2

[6] = test system: CFPAC-1 pancreatic cancer cells; assay: In vivo inhibition test of cancer cell proliferation, CFPAC-1 transplant; set-up: species or system Balb/c naked mouse; conditions: 7 mg/kg, once every other three days, 7 times; gross tumor volume
Protocol: Test method: 3×10^7 CFPAC-1 pancreatic cancer cells were transplanted to subcutaneous tissues of armpit of a Balb/c naked mouse; administration was conducted when the tumor grew to 50-100 mm^3, 100-200 mm^3, and greater than 200 mm^3; the mouse was administered once every other three days, 7 times in total, and 7 mg/kg each time. Normal saline was injected in the control group. Tumor length and diameter were measured by calipers and weight of the moue was weighed until the next day of the final administration. Gross tumor volume was calculated by the following equation:
gross tumor volume (mm^3)=½×[short diameter (mm)]^2×long diameter (mm)

myeloma cell RPMI-8226 = assay: In vitro proliferation inhibition, RPMI-8226; type: cell-based; conditions: unit inferred
Protocol: as §1, §2

[7] = test system: prostate cancer cell PC-3; assay: In vitro proliferation inhibition, PC-3; type: cell-based; conditions: unit inferred
Protocol: as §1, §2

bladder cancer cell 5637 = assay: In vitro proliferation inhibition, 5637; type: cell-based; conditions: unit inferred
Protocol: as §1, §2

[8] = test system: pancreatic cancer cell SW1990; assay: In vitro proliferation inhibition, SW1990; type: cell-based; conditions: unit inferred
Protocol: as §1, §2

[9] = test system: pancreatic cancer cell ASPC-1; assay: In vitro proliferation inhibition, ASPC-1; type: cell-based; conditions: unit inferred
Protocol: as §1, §2

[10] = test system: non-small cell lung cancer cell H1299; assay: In vitro proliferation inhibition, H1299; type: cell-based; conditions: unit inferred
Protocol: as §1, §2

[11] = test system: pancreatic cancer cell PANC-1; assay: In vitro proliferation inhibition, PANC-1; type: cell-based; conditions: unit inferred
Protocol: as §1, §2

[12] = test system: non-small cell lung cancer cell H460; assay: In vitro proliferation inhibition, H460; type: cell-based; conditions: unit inferred
Protocol: as §1, §2

`COCCOCCOCCO/N=C1\c2ccccc2C(=O)c2c1[n+](C)cn2C` [Compound 147, (E) and (Z)-4-((2-(2-(2-methoxyethoxy)ethoxy)ethoxy)imino)-1,3-dimethyl-9-oxo-4,9-dihydro-1H-naphthol[2,3-d]imidazole-3-iodide] was tested, and the IC50 (A549; Homo sapiens, A549, 24 h or 48 h after addition) was 20 nM, the IC50 (L929; Mus musculus, L929, 24 h or 48 h after addition) was 15.7 µM and the IC50 (HeLa; Homo sapiens, HeLa) was 13.2 µM. The IC50 (MCF-7; Homo sapiens, MCF7, 24 h or 48 h after addition) was 26.8 µM.

`CCCCn1c2c([n+](C)c1-c1cc(OC)c(OC)c(OC)c1)C(=NOCc1ccccc1)c1ccccc1C2=O` [Compound 148, (E) and (Z)-4-((benzyloxy)imino)-1-butyl-3-methyl-9-oxo-2-(3,4,5-trimethoxyphenyl)-4,9-dihydro-1H-naphthol[2,3-d]imidazole-3-iodide] gave an IC50 (A549; 24 h or 48 h after addition) of 90 nM, an IC50 (L929; 24 h or 48 h after addition) of 44.1 µM and an IC50 (HeLa) of 23.6 µM. The IC50 (MCF-7; 24 h or 48 h after addition) was 34.6 µM.

With `Cn1c[n+](C)c2c1C(=O)c1cc3ccccc3cc1C2=NOCc1ccccc1` [Compound 149, (E) and (Z)-4-((benzyloxy)imino)-1,3-dimethyl-11-oxo-4, 11-dihydro-1H-anthracene[2,3-d]imidazole-3-iodide] the IC50 (A549; 24 h or 48 h after addition) was 330 nM, the IC50 (L929; 24 h or 48 h after addition) was greater than 100 µM and the IC50 (HeLa) was 67.4 µM. The IC50 (MCF-7; 24 h or 48 h after addition) was 75.3 µM.

For `C=CCON=C1c2cc3ccccc3cc2C(=O)c2c1[n+](C)cn2C` [Compound 150, (E) and (Z)-4-((allyloxy)imino)-1,3-dimethyl-11-oxo-4,11-dihydro-1H-anthracene[2,3-d]imidazole-3-iodide], the IC50 (A549; 24 h or 48 h after addition) was 460 nM, the IC50 (L929; 24 h or 48 h after addition) was 97.8 µM and the IC50 (HeLa) was 34.4 µM. The IC50 (MCF-7; 24 h or 48 h after addition) was 45.9 µM.

`Cn1c[n+](C)c2c1C(=O)c1cc3ccccc3cc1C2=NOCc1ccc([N+](=O)[O-])cc1` [Compound 151, (E) and (Z)-1,3-dimethyl-4-(((4-nitrobenzyl)oxy)imino)-11-oxo-4,11-dihydro-1H-anthracene[2,3-d]imidazole-3-iodide] was tested, and the IC50 (A549; 24 h or 48 h after addition) was 120 nM, the IC50 (L929; 24 h or 48 h after addition) was 89.6 µM and the IC50 (HeLa) was 56.8 µM. It also gave an IC50 (MCF-7; 24 h or 48 h after addition) of 78.8 µM.

With “(E) and (Z)-4-(butoxyimino)-1,3-dimethyl-9-oxo-4,9-dihydro-1H-naphthol[2,3-d] [Compound 128]” the IC50 (leukemia cell CCRF-CEM) was 530 nM, the IC50 (A549; 24 h or 48 h after addition) was 4 nM and the IC50 (liver tumor cell HepG2) was 20 nM. For the same compound, the IC50 [1] was 80 nM, the IC50 (rectal cancer cell HT29) was 9.8 µM and the IC50 (melanoma cell A375) was 1660 nM. For the same compound, the IC50 (L929; 24 h or 48 h after addition) was 6.5 µM, the IC50 [2] was 9 nM and the IC50 [3] was 8 nM. The IC50 [4] was 9 nM, the IC50 [5] was 6 nM and the “proliferation inhibition activity / inhibition ratio” value [6] was 100%. For the same compound, the IC50 (myeloma cell RPMI-8226) was 78.9 µM, the IC50 (HeLa) was 4.8 µM and the IC50 (MCF-7; 24 h or 48 h after addition) was 2.9 µM. It also gave an IC50 [7] of 8.8 µM, an IC50 (bladder cancer cell 5637) of 10 nM and an IC50 [8] of 9 nM. For the same compound, the IC50 [9] was 8 nM, the IC50 [10] was 170 nM and the IC50 [11] was 100 nM. For the same compound, the IC50 [12] was 140 nM.
